Reference: US20230047208A1, “RNA Splicing Modulation” (The General Hospital Corporation, priority 2020, published 2023)

How the values were obtained:
CPSF7 minigene, Exon X = assay: CPSF7 minigene splicing assay, RT-PCR; format: cell-based; conditions: mutated CPSF7 minigene
From the text: (§1) FIGS. 3E-3G Upper row: The length of the exon triplets cloned into minigenes constructs are shown. The flanking sequences of the 5′ splice sites of Exon X are shown in LOGO plots. The height of each nucleotide was estimated using in silico saturated mutagenesis, with the corresponding closely matched CNN Motifs indicated below the plots. […] Middle row: Splicing changes for Exon X in both wildtype and mutated exon triplets, predicted by the CNN model (left) and measured by RT-PCR of the minigene (right). The RT-PCR experiments were performed in duplicate and independently repeated three times for each minigene to make the bar plots (two-tailed, unpaired Student's t test). Bottom row: Example of splicing changes induced by treatment with Compound (I) in the minigene splicing assays. The percentage for Exon X inclusion is indicated beneath each lane, from treated and untreated conditions in both wildtype and mutated minigenes. […] The statistical significance, as shown in FIGS. 3E-3G, was determined via two-tailed, unpaired Student's test: *p<0.05; **p<0.01; ***p<0.001. […]
(§2) Wild-type and mutant double-stranded DNA (dsDNA) fragments, selected based on low nucleotide length and exon-skipping probability, were ordered through GENEWIZ (FragmentGENE). […] Concentrations were determined using a nanodrop spectrometer.

SETD5 minigene, Exon X = assay: SETD5 minigene splicing assay, RT-PCR; format: cell-based; conditions: mutated SETD5 minigene
From the text: as §1, §2

CFTR channel = assay: CFTR functional assessment, short circuit current (Ussing chamber) in CFBE cells stably expressing c.2988G>A; format: cell-based, human
From the text: WT CFTR-EMG-i14-i18, CFTR-EMG-i14-i18 harboring c.2988G>A, Flp-In-CFBE, and Flp-In-293 cells stably expressing WT-EMG and c.2988G>A EMG were generated. Both Flpin-293 and Flp-In-CFBE cells lack endogenous CFTR expression (CFBE41o-) and contain a single Flp recombinase target site. Co-transfection of EMG plasmid with pOG44 (a plasmid encoding Flp recombinase) allowed for genomic integration at the FRT site. Hygromycin was used for stable cell selection.
Assessment of CFTR channel function and response to Compound (I) was performed in CFBEs stably expressing c.2988G>A. Briefly, CFBE stable cell lines were plated on snapwell filters. When transepithelial resistance reached ˜200Ω (˜ 5-7 days) as measured using Voltammeter (Physiologic Instruments), cells were treated with Compound (I) at varying doses (0.3 μM to 10 μM) for next 3 days. Filters were mounted in Ussing chambers (Physiological Instruments). A high chloride solution was added to the basolateral chamber and a low chloride solution was added to the apical chamber. After equilibration of currents, 10 μM forskolin (Selleckchem) was added to the basolateral side to activate CFTR channels via cAMP signaling. Currents were allowed to plateau, followed by acute addition of 10 μM ivacaftor at apical side for CFTR potentiation (Selleckchem). Inhibition of CFTR was performed using 10 μM Inh-172 (Selleckchem) added to the apical chamber.
The ability of Compound (I) to rescue chloride channel function was also assessed. CF bronchial epithelial (CFBE) cell lines was generated to stably express the splicing mutation c.2988G>A. Cells were grown in monolayers on filters and treated with increasing doses of Compound (I) (0.3 μM-10 μM) or DMSO for 3 days. Chloride channel function was assessed by measuring short circuit current (Isc) on treated CFBE cells. Forskolin was added to initiate CFTR channel activity via cAMP-mediated signaling, with further channel activation by Ivacaftor and inhibition with Inh-172, a CFTR-specific inhibitor (FIG. 9C, representative Isc tracing). CFTR-specific change in current (ΔIsc±SD) allows for measurement of chloride channel function (FIG. 9C). […] Significant recovery of CFTR function (˜3 fold) was observed following treatment with Compound (I) at 1, 3, 6, and 10 μM for 3 days, with a maximal increase in CFTR function achieved using 3 μM of Compound (I) (ΔIsc=37.168±4.32 μA/cm^2, FIG. 9C).

SMILES: Clc1nc(NCc2ccncc2)c2cc[nH]c2n1 [Compound (I), 2-chloro-N-(pyridin-4-ylmethyl)-7H-pyrrolo[2,3-d]pyrimidin-4-amine]
- Exon X splicing response confirmed by RT-PCR (CPSF7 minigene, Exon X): inclusion
- Exon X splicing response confirmed by RT-PCR (SETD5 minigene, Exon X): exclusion
- CFTR-specific change in current ΔIsc (±SD) (CFTR channel; CFBE c.2988G>A, 3 μM, 3 days (maximal increase)): 37.168±4.32 μA/cm^2
- recovery of CFTR function (CFTR channel; CFBE c.2988G>A, 1, 3, 6 and 10 μM, 3 days, versus DMSO): ~3 fold
- chloride channel function (CFTR channel; CFBE c.2988G>A, Compound (I) in combination with Ivacaftor): ~30 % of WT
- chloride channel function (CFTR channel; CFBE c.2988G>A, Compound (I) treatment alone): ~20 % of WT
